Where a name gives a salt, the structure may show the parent alone.

The first test has as its system Bmi-1 protein. Put plainly: Sandwich ELISA Assay (Bmi-1 protein level in HT-1080 cells after compound treatment). Type of test: cell-based. Conditions: Table 1, Bmi-1 sandwich ELISA, read-out: ELISA EC50 value for Bmi-1 protein. The method, then:
Cell Seeding and Compound Treatment (Day 1):
HT-1080 cells were seeded at 8000 cells/well (50 μL) in 96-well tissue culture plates. After the cells became adherent (3-4 hours), 2× diluted stocks of test compounds in 50 μL DMEM containing 1% DMSO (final DMSO concentration was 0.5%) were added and the plates were incubated at 37° C. under 5% CO2 for 40-48 hours.
ELISA Plate First Antibody Preparation (Day 2):
The First Antibody (Millipore Mouse, monoclonal to mouse Bmi-1, clone F6, catalog #05-637) diluted to […] in PBS was added (100 μL) to each well of a Nunc MaxiSorp 96-well ELISA plate. The plate was covered with a plate seal and allowed to stand overnight.
Cell Lysate Preparation (Day 3):
Fresh Lysis buffer (1×) was prepared on the day of the assay as follows: 1 mM EDTA, 150 mM NaCl, 0.5% Triton-X 100, 10 mM NaF, 20 mM B-Glycerophosphate, 1 mM DTT (in PBS, pH 7.2-7.4) and HALT protease inhibitor cocktail (lx) (Pierce #78410).
A standard curve was prepared at the following Bmi-1 concentrations: 8000, 4000, 2000, 1000, 500, 250, 125 and 0 pg/mL. The Bmi-1 Recombinant Protein Standard (Novus Biologicals PCGF4 Recombinant Protein (P01), catalog # H00000648-P01) used to prepare the standard curve was stored at −80° C. On first thaw, the Recombinant Protein Standard was diluted to 10 μg/L in Blocking Buffer (1% BSA in PBS; BSA: Fisher Scientific Catalog #1600-100). Aliquots were taken and refrozen at −80° C. The aliquots may be kept at 4° C. and reused after first thaw, but only within 1-2 weeks. The Recombinant Protein Standard contains a GST-fusion tag that appears at approximately 70 Kda on Western Blot.
The prepared ELISA plate was washed 3× with Wash Buffer (0.05% Tween-20 in PBS). The final wash was removed from the plate and the plate was blotted dry. Blocking Buffer (300 μL) (1% BSA in PBS) was added to each well. The plate was covered with a plate seal and incubated at room temperature for 1 hour. The blocked plate was washed 3× with Wash Buffer, then the final wash was removed and the plate was blotted dry. The previously prepared samples and standards were added ([…]) and the plate was covered with a plate seal and incubated at 4° C. overnight.
The prepared ELISA plate was removed from incubation and allowed to stand at room temperature for 30 minutes, then washed and blotted dry. The Second Antibody (Cell Signaling Rabbit anti-Bmi-1, Cat #2830) diluted to 1:600 in Blocking Buffer was added (100 μL) to each well, except as needed for background control wells. The plate was covered with a plate seal and incubated for 1.5 hrs at room temperature.
The ELISA plate was washed and blotted dry as previously described. The Third Antibody (Cell Signaling HRP conjugated anti-rabbit IgG (CellSignaling, Cat #:7074) diluted to 1:300 in Blocking Buffer was added (100 μL) to each well, except as needed for background control wells. The plate was incubated for 1 hr at room temperature.
The plate was washed and blotted dry, then a previously prepared TMB substrate (TMB substrate kit, Pierce catalog #34021) (prepared by mixing kit reagents 1:1) (100 μL) was added per well. The plate was incubated for 20-30 minutes at room temperature in the dark, then Stop Solution (2 M sulfuric acid in water) (50 μL) was added per well. The plates were read at OD450 (experimental) and OD570 (reference).
A general note: In an ELISA, binding on a coated surface is turned into a signal by an enzyme label.
By EC50 is commonly meant the midpoint of the concentration-response curve. `Cc1nc2ccccc2n1-c1cncc(Nc2ccc(CN)cc2)n1` [154a, N-[4-(aminomethyl)phenyl]-6-(2-methyl-1H-benzimidazol-1-yl)pyrazin-2-amine trifluoroacetate]: the EC50 was 10 to 100 nM.

Consider `Nc1cc(Nc2ccc(C(F)(F)F)cc2)nc(-c2c(CO)nc3ccccn23)c1` [289a, [3-(4-amino-6-{[4-(trifluoromethyl)phenyl]amino}pyridin-2-yl)imidazo[1,2-a]pyridin-2-yl)methanol hydrochloride (1:2)], for which the half-maximal effective concentration (EC50) fell in the range of 10 to 100 nM.

With `COc1ccc(Nc2cccc(-c3c(C(F)(F)F)nc4ccccn34)n2)cc1Cl` [Cpd 3, N-(3-chloro-4-methoxyphenyl)-6-[2-(trifluoromethyl)imidazo[1,2-a]pyridin-3-yl]pyridin-2-amine], the EC50 was in the range of 1 to 10 nM.

Take `COc1ccc(Nc2cccc(-c3c(C(F)(F)F)nc4ccccn34)n2)cc1` [Cpd 4, N-(4-methoxyphenyl)-6-[2-(trifluoromethyl)imidazo[1,2-a]pyridin-3-yl]pyridin-2-amine]: the EC50 lay in the range of 1 to 10 nM.

In the case of `FC(F)(F)c1ccc(Nc2cncc(-c3c(C(F)(F)F)nc4ccccn34)n2)cc1` [Cpd 6, 6-[2-(trifluoromethyl)imidazo[1,2-a]pyridin-3-yl]-N-[4-(trifluoromethyl)phenyl]pyrazin-2-amine], the EC50 lay in the range of 1 to 10 nM.

In the case of `COc1ccc(Nc2cncc(-c3c(C(F)(F)F)nc4ccccn34)n2)cc1F` [Cpd 7, N-(3-fluoro-4-methoxyphenyl)-6-[2-(trifluoromethyl)imidazo[1,2-a]pyridin-3-yl]pyrazin-2-amine], the half-maximal effective concentration (EC50) was less than 1 nM.

`COc1ccc(Nc2cccc(-c3c(C(F)(F)F)nc4ccccn34)n2)cc1F` [Cpd 8, N-(3-fluoro-4-methoxyphenyl)-6-[2-(trifluoromethyl)imidazo[1,2-a]pyridin-3-yl]pyridin-2-amine]: the EC50 lay in the range of 1 to 10 nM.

Regarding `Fc1ccc(Nc2cncc(-c3c(C(F)(F)F)nc4ccccn34)n2)cc1` [Cpd 9, N-(4-fluorophenyl)-6-[2-(trifluoromethyl)imidazo[1,2-a]pyridin-3-yl]pyrazin-2-amine], the EC50 lay in the range of 100 to 3000 nM.

For `FC(F)(F)c1nc2ccccn2c1-c1cncc(Nc2ccc(Cl)cc2)n1` [Cpd 10, N-(4-chlorophenyl)-6-[2-(trifluoromethyl)imidazo[1,2-a]pyridin-3-yl]pyrazin-2-amine], the EC50 lay within 1 to 10 nM.

In the case of `FC(F)(F)Oc1ccc(Nc2cncc(-c3c(C(F)(F)F)nc4ccccn34)n2)cc1` [Cpd 11, N-[4-(trifluoromethoxy)phenyl]-6-[2-(trifluoromethyl)imidazo[1,2-a]pyridin-3-yl]pyrazin-2-amine], the EC50 lay in the range of 10 to 100 nM.

Turning to `FC(F)(F)Oc1ccc(Nc2cccc(-c3c(C(F)(F)F)nc4ccccn34)n2)cc1` [Cpd 16, N-[4-(trifluoromethoxy)phenyl]-6-[2-(trifluoromethyl)imidazo[1,2-a]pyridin-3-yl]pyridin-2-amine], the EC50 is 10 to 100 nM.

For `FC(F)(F)c1nc2ccccn2c1-c1cccc(Nc2ccc(Cl)cc2)n1` [Cpd 17, N-(4-chlorophenyl)-6-[2-(trifluoromethyl)imidazo[1,2-a]pyridin-3-yl]pyridin-2-amine], the EC50 fell in the range of 1 to 10 nM.

Turning to `COc1ccc(Nc2cncc(-c3c(C(F)(F)F)nc4ccccn34)n2)cc1Cl` [Cpd 22, N-(3-chloro-4-methoxyphenyl)-6-[2-(trifluoromethyl)imidazo[1,2-a]pyridin-3-yl]pyrazin-2-amine], the EC50 lay within 1 to 10 nM.

For the compound `N#Cc1ccc(Nc2cncc(-c3c(C(F)(F)F)nc4ccccn34)n2)cc1` [Cpd 23], the EC50 was in the range of 10 to 100 nM.

As for `FC(F)Oc1ccc(Nc2cncc(-c3c(C(F)(F)F)nc4ccccn34)n2)cc1` [Cpd 24, N-[4-(difluoromethoxy)phenyl]-6-[2-(trifluoromethyl)imidazo[1,2-a]pyridin-3-yl]pyrazin-2-amine], the EC50 was less than 1 nM.

With `Fc1cc(Nc2cncc(-c3c(C(F)(F)F)nc4ccccn34)n2)ccc1Cl` [Cpd 25, N-(4-chloro-3-fluorophenyl)-6-[2-(trifluoromethyl)imidazo[1,2-a]pyridin-3-yl]pyrazin-2-amine], the EC50 fell in the range of 1 to 10 nM.

Turning to `Fc1ccc(Nc2cncc(-c3c(C(F)(F)F)nc4ccccn34)n2)cc1F` [Cpd 26, N-(3,4-difluorophenyl)-6-[2-(trifluoromethyl)imidazo[1,2-a]pyridin-3-yl]pyrazin-2-amine], the EC50 is 100 to 3000 nM.

Turning to `FC(F)Oc1ccc(Nc2cccc(-c3c(C(F)(F)F)nc4ccccn34)n2)cc1` [Cpd 27, N-[4-(difluoromethoxy)phenyl]-6-[2-(trifluoromethyl)imidazo[1,2-a]pyridin-3-yl]pyridin-2-amine], the concentration giving a half-maximal response (EC50) fell in the range of 1 to 10 nM.

For the compound `FC(F)(F)c1nc2ccccn2c1-c1cncc(Nc2ccc(Cl)c(Cl)c2)n1` [Cpd 29, N-(3,4-dichlorophenyl)-6-[2-(trifluoromethyl)imidazo[1,2-a]pyridin-3-yl]pyrazin-2-amine], the EC50 was 10 to 100 nM.

In the case of `Fc1cc(Nc2cncc(-c3c(C(F)(F)F)nc4ccccn34)n2)ccc1Br` [Cpd 30, N-(4-bromo-3-fluorophenyl)-6-[2-(trifluoromethyl)imidazo[1,2-a]pyridin-3-yl]pyrazin-2-amine], the EC50 was in the range of 1 to 10 nM.

With `FC(F)(F)c1nc2ccccn2c1-c1cncc(Nc2ccc(Br)c(Cl)c2)n1` [Cpd 31, N-(4-bromo-3-chlorophenyl)-6-[2-(trifluoromethyl)imidazo[1,2-a]pyridin-3-yl]pyrazin-2-amine], the EC50 fell in the range of 10 to 100 nM.

With `Cc1nc2ccccc2n1-c1cccc(Nc2ccc(OC(F)F)cc2)n1` [Cpd 35, N-[4-(difluoromethoxy)phenyl]-6-(2-methyl-1H-benzimidazol-1-yl)pyridin-2-amine], the EC50 fell in the range of 10 to 100 nM.

On to `Cc1nc2ccccc2n1-c1cccc(Nc2ccc(OC(F)(F)F)cc2)n1` [Cpd 36, 6-(2-methyl-1H-benzimidazol-1-yl)-N-[4-(trifluoromethoxy)phenyl]pyridin-2-amine], for which the EC50 is 100 to 3000 nM.

With `Cc1nc2ccccc2n1-c1cccc(Nc2ccc(C(F)(F)F)cc2)n1` [Cpd 37, 6-(2-methyl-1H-benzimidazol-1-yl)-N-[4-(trifluoromethyl)phenyl]pyridin-2-amine], the EC50 was 10 to 100 nM.

As to `FC(F)Oc1ccc(Nc2cccc(-n3c(C(F)(F)F)nc4ccccc43)n2)cc1` [Cpd 38, N-[4-(difluoromethoxy)phenyl]-6-[2-(trifluoromethyl)-1H-benzimidazol-1-yl]pyridin-2-amine], the 50% effective concentration (EC50) was in the range of 10 to 100 nM.

Staying with this test, now noted: read-out: ELISA EC50 value for Bmi-1 protein, Table 1, Bmi-1 sandwich ELISA.
Regarding `FC(F)(F)c1ccc(Nc2cccc(-c3c(C(F)(F)F)nc4ccccn34)n2)cc1` [Cpd 18, 6-[2-(trifluoromethyl)imidazo[1,2-a]pyridin-3-yl]-N-[4-(trifluoromethyl)phenyl]pyridin-2-amine], the EC50 was in the range of 1 to 10 nM.

Turning to `COc1ccc(Nc2cccc(-n3c(C)nc4ccccc43)n2)cc1` [Cpd 32, N-(4-methoxyphenyl)-6-(2-methyl-1H-benzimidazol-1-yl)pyridin-2-amine], the 50% effective concentration (EC50) was 1 to 10 nM.

As to `COc1ccc(Nc2cccc(-n3c(C(F)(F)F)nc4ccccc43)n2)cc1` [Cpd 33, N-(4-methoxyphenyl)-6-[2-(trifluoromethyl)-1H-benzimidazol-1-yl]pyridin-2-amine], the EC50 fell in the range of 10 to 100 nM.

For the compound `COc1ccc(Nc2ccc(C#N)c(-c3c(C(F)(F)F)nc4ccccn34)n2)cc1` [Cpd 34, 6-[(4-methoxyphenyl)amino]-2-[2-(trifluoromethyl)imidazo[1,2-a]pyridin-3-yl]pyridine-3-carbonitrile], the EC50 is 100 to 3000 nM.

(Values after patent US10584115B2, “Substituted pyridine and pyrazine BMI-1 inhibitors” (PTC Therapeutics, Inc., priority 2013, dated 2020).)
